Data as given in PubChem BioAssay AID330 (DTP/NCI, 2004).
Values joined by “and” are separate entries in the source; they are usually repeats but may differ in a detail not shown here. Equal values may be shown once. Toxic doses and inconclusive results are not listed. The calls were made as follows: active = survival T/C of 150% or more; inactive = T/C below 125% in these data.

System: P388 leukemia ip, CD2F1 mice, survival T/C
Test: NCI In Vivo Anticancer Drug Screen. Data for tumor model P388 Leukemia (intraperitoneal) in CD2F1 (CDF1) mice
Conditions: endpoint: median survival time, higher = longer survival
Summary of the method: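 Mice carrying the transplanted tumor received test compound or vehicle. Survival was recorded in each group, and the value is the treated-group measurement divided by that of the vehicle-treated control group.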

[1] = dose: 50.0 mg/kg/injection, schedule: Q01DX005 (ip), vehicle: Klucel (hydroxypropylcellulose) (HPC)
[2] = dose: 100.0 mg/kg/injection, schedule: Q01DX005 (ip), vehicle: Klucel (hydroxypropylcellulose) (HPC)
[3] = dose: 200.0 mg/kg/injection, schedule: Q01DX005 (ip), vehicle: Klucel (hydroxypropylcellulose) (HPC)
[4] = dose: 100.0 mg/kg/injection, schedule: Q04DX003 (ip), vehicle: saline with Tween-80
[5] = dose: 50.0 mg/kg/injection, schedule: Q01DX009 (ip), vehicle: saline with Tween-80
[6] = dose: 100.0 mg/kg/injection, schedule: Q01DX009 (ip), vehicle: saline with Tween-80
[7] = dose: 200.0 mg/kg/injection, schedule: Q01DX009 (ip), vehicle: saline with Tween-80
[8] = dose: 60.0 mg/kg/injection, schedule: Q01DX005 (ip), vehicle: saline
[9] = dose: 120.0 mg/kg/injection, schedule: Q01DX005 (ip), vehicle: saline
[10] = dose: 50.0 mg/kg/injection, schedule: Q01DX005 (ip), vehicle: saline
[11] = dose: 100.0 mg/kg/injection, schedule: Q01DX005 (ip), vehicle: saline
[12] = dose: 25.0 mg/kg/injection, schedule: Q01DX005 (ip), vehicle: Klucel (hydroxypropylcellulose) (HPC)
[13] = dose: 12.5 mg/kg/injection, schedule: Q01DX005 (ip), vehicle: Klucel (hydroxypropylcellulose) (HPC)

Measured: T/C

CC1=C(CO)C(=O)OC(C(C)C2CCC3C4CC5OC56C(O)C(N5CCCC5)CC(=O)C6(C)C4CCC23C)C1 (stereo not given)
inactive: dose: 8.75 mg/kg/injection, schedule: Q01DX005 (ip), vehicle: Klucel (hydroxypropylcellulose) (HPC) 94 % of control | dose: 17.5 mg/kg/injection, schedule: Q01DX005 (ip), vehicle: Klucel (hydroxypropylcellulose) (HPC) 97 % of control | dose: 35.0 mg/kg/injection, schedule: Q01DX005 (ip), vehicle: Klucel (hydroxypropylcellulose) (HPC) 99 % of control | dose: 70.0 mg/kg/injection, schedule: Q01DX005 (ip), vehicle: Klucel (hydroxypropylcellulose) (HPC) 111 % of control | dose: 140.0 mg/kg/injection, schedule: Q01DX005 (ip), vehicle: Klucel (hydroxypropylcellulose) (HPC) 103 % of control

CCOc1ccc(C2c3ccc(OC)cc3OC(C)(C)C2c2ccccc2)cc1[N+](=O)[O-] (stereo not given)
inactive: [1] 101 % of control | [2] 99 % of control | [3] 95 % of control

CC(C)Cc1cccc2c1CCCC2
inactive: dose: 50.0 mg/kg/injection, schedule: Q01DX005 (ip), vehicle: suspension in saline 97 % of control | dose: 100.0 mg/kg/injection, schedule: Q01DX005 (ip), vehicle: suspension in saline 97 % of control | dose: 200.0 mg/kg/injection, schedule: Q01DX005 (ip), vehicle: suspension in saline 101 % of control

COP1(=O)OC(C)=C(C)c2cccn21 (stereo not given)
inactive: dose: 25.0 mg/kg/injection, schedule: Q04DX003 (ip), vehicle: saline with Tween-80 103 % of control | dose: 50.0 mg/kg/injection, schedule: Q04DX003 (ip), vehicle: saline with Tween-80 106 % of control | [4] 99 % of control and 96 % of control

CCOC(=O)C(CC)c1ccccc1 (stereo not given)
inactive: [5] 99 % of control | [6] 102 % of control | [7] 112 % of control

NC(=O)N(CCO)/N=C/C=C/c1ccc([N+](=O)[O-])o1
inactive: [1] 106 % of control | [2] 115 % of control | [3] 108 % of control

Cc1ncc2c(c1O)COC2C (stereo not given)
inactive: [8] 100 % of control | [9] 97 % of control | dose: 240.0 mg/kg/injection, schedule: Q01DX005 (ip), vehicle: saline 99 % of control

Cc1ccc(N2[C@H]3CCCN3c3ccc(C)cc3[C@@H]2C(F)(F)F)cc1
inactive: dose: 50.0 mg/kg/injection, schedule: Q01DX005 (ip), vehicle: saline with Tween-80 110 % of control | dose: 100.0 mg/kg/injection, schedule: Q01DX005 (ip), vehicle: saline with Tween-80 100 % of control | dose: 200.0 mg/kg/injection, schedule: Q01DX005 (ip), vehicle: saline with Tween-80 100 % of control

OCCN(CCO)Cc1nc2ccccc2[nH]1
inactive: [10] 104 % of control | [11] 99 % of control | dose: 200.0 mg/kg/injection, schedule: Q01DX005 (ip), vehicle: saline 101 % of control

Cc1c2ccncc2c(C)c2c1[nH]c1ccc(OCCN(C)C)cc12
inactive: dose: 6.25 mg/kg/injection, schedule: Q04DX002 (ip), vehicle: water 108 % of control | dose: 12.5 mg/kg/injection, schedule: Q04DX002 (ip), vehicle: water 114 % of control | dose: 25.0 mg/kg/injection, schedule: Q04DX002 (ip), vehicle: water 119 % of control | dose: 50.0 mg/kg/injection, schedule: Q04DX002 (ip), vehicle: water 87 % of control

O=C(CCl)NC(Cc1ccccc1F)C(=O)O (stereo not given)
inactive: dose: 50.0 mg/kg/injection, schedule: Q01DX009 (ip), vehicle: saline 106 % of control | dose: 100.0 mg/kg/injection, schedule: Q01DX009 (ip), vehicle: saline 102 % of control | dose: 200.0 mg/kg/injection, schedule: Q01DX009 (ip), vehicle: saline 101 % of control

COc1cc2c(C)cc(=O)oc2c(OCC(O)CN2CCCC2)c1OC (stereo not given)
inactive: [8] 96 % of control | [9] 99 % of control

CNP(=O)(OC)Oc1ccc(C(C)(C)C)cc1Cl (stereo not given)
inactive: [5] 112 % of control | [6] 106 % of control | [7] 115 % of control

CC1CCN(CC#CCN2C(=O)CCC2=O)CC1
inactive: [12] 104 % of control | [1] 103 % of control | [2] 107 % of control | [3] 107 % of control

CC[C@]1(O)CC(OC2CC(N(C)C)C(O)C(C)O2)c2c(cc3c(c2O)C(=O)c2c(O)cccc2C3=O)[C@@H]1C(=O)OC (stereo not given in full)
inactive: [1] 95 % of control | [2] 96 % of control | [3] 97 % of control

COc1cccc(NCCCSC)c1
inactive: [10] 102 % of control | [11] 116 % of control

C/C=C1\CN2CCc3c([nH]c4ccccc34)C2CC1C1=CN2c3ccccc3C34CCN5CC6=CCOC1C(C6CC53)C24 (stereo not given)
inactive: dose: 2.38 mg/kg/injection, schedule: Q01DX005 (ip), vehicle: Klucel (hydroxypropylcellulose) (HPC) 95 % of control | dose: 4.75 mg/kg/injection, schedule: Q01DX005 (ip), vehicle: Klucel (hydroxypropylcellulose) (HPC) 97 % of control | dose: 9.5 mg/kg/injection, schedule: Q01DX005 (ip), vehicle: Klucel (hydroxypropylcellulose) (HPC) 88 % of control

COc1cc2c[n+](C)c3c4cc(OC)c(OC)cc4c(OC)cc3c2cc1OC
inactive: [13] 118 % of control | dose: 25.0 mg/kg/injection, schedule: Q01DX005 (ip), vehicle: saline 109 % of control | [1] 112 % of control | [2] 118 % of control | [11] 120 % of control

Cc1cc(=O)n(-c2cc(C)c3cc(Cl)ccc3n2)[nH]1
inactive: dose: 100.0 mg/kg/injection, schedule: Q01DX001 (ip), vehicle: saline with Tween-80 93 % of control | dose: 200.0 mg/kg/injection, schedule: Q01DX001 (ip), vehicle: saline with Tween-80 94 % of control | dose: 400.0 mg/kg/injection, schedule: Q01DX001 (ip), vehicle: saline with Tween-80 104 % of control

Cc1cc(N=Nc2ccc(O)cc2C(=O)O)c([N+](=O)[O-])cc1C
inactive: dose: 50.0 mg/kg/injection, schedule: Q01DX009 (ip), vehicle: Klucel (hydroxypropylcellulose) (HPC) 101 % of control | dose: 100.0 mg/kg/injection, schedule: Q01DX009 (ip), vehicle: Klucel (hydroxypropylcellulose) (HPC) 111 % of control | dose: 200.0 mg/kg/injection, schedule: Q01DX009 (ip), vehicle: Klucel (hydroxypropylcellulose) (HPC) 104 % of control

COSOC
inactive: dose: 7.5 mg/kg/injection, schedule: Q04DX003 (ip), vehicle: Klucel (hydroxypropylcellulose) (HPC) 105 % of control | dose: 15.0 mg/kg/injection, schedule: Q04DX003 (ip), vehicle: Klucel (hydroxypropylcellulose) (HPC) 104 % of control | dose: 30.0 mg/kg/injection, schedule: Q04DX003 (ip), vehicle: Klucel (hydroxypropylcellulose) (HPC) 98 % of control

COc1cc2c(cc1CCCc1cc(OC)c(OC)c(OC)c1)OCO2
inactive: dose: 60.0 mg/kg/injection, schedule: Q01DX005 (ip), vehicle: saline with Tween-80 92 % of control | dose: 120.0 mg/kg/injection, schedule: Q01DX005 (ip), vehicle: saline with Tween-80 89 % of control | dose: 240.0 mg/kg/injection, schedule: Q01DX005 (ip), vehicle: saline with Tween-80 86 % of control

O=[N+]([O-])C1C2C=CC(C2)C1C(Cl)(Cl)Cl (stereo not given)
inactive: dose: 0.19 mg/kg/injection, schedule: Q01DX009 (ip), vehicle: saline with Tween-80 101 % of control | dose: 0.39 mg/kg/injection, schedule: Q01DX009 (ip), vehicle: saline with Tween-80 100 % of control | dose: 0.78 mg/kg/injection, schedule: Q01DX009 (ip), vehicle: saline with Tween-80 98 % of control and 99 % of control

CC[N+](CC)(CC)CC
inactive: dose: 3.13 mg/kg/injection, schedule: Q04DX003 (ip), vehicle: saline with Tween-80 100 % of control | dose: 12.5 mg/kg/injection, schedule: Q04DX003 (ip), vehicle: saline with Tween-80 118 % of control

O=C1C=C(Cl)C(=O)C(c2ccccc2)=C1Cl
inactive: [13] 96 % of control | [12] 91 % of control

NC(=O)CC1(C(=O)O)c2ccccc2-c2ccccc21
inactive: [4] 97 % of control | dose: 200.0 mg/kg/injection, schedule: Q04DX003 (ip), vehicle: saline with Tween-80 97 % of control | dose: 400.0 mg/kg/injection, schedule: Q04DX003 (ip), vehicle: saline with Tween-80 108 % of control

O=C1c2ccccc2C(=O)N1C[P+](c1ccccc1)(c1ccccc1)c1ccccc1
inactive: dose: 0.78 mg/kg/injection, schedule: Q01DX009 (ip), vehicle: water 102 % of control | dose: 1.56 mg/kg/injection, schedule: Q01DX009 (ip), vehicle: water 106 % of control | dose: 3.13 mg/kg/injection, schedule: Q01DX009 (ip), vehicle: water 106 % of control | dose: 5.56 mg/kg/injection, schedule: Q01DX009 (ip), vehicle: water 123 % of control | dose: 25.0 mg/kg/injection, schedule: Q01DX009 (ip), vehicle: water 98 % of control
